Reference: article PMC9750858, “Rapid biosensor development using plant hormone receptors as reprogrammable scaffolds” (Nature Biotechnology, 2022)
Positions count from the first letter of the chain named.

What was measured:
[1] = target: T1, PYR1^DIAZI-M (Arabidopsis thaliana, UniProt O49686, A160V/E8G/F108Y/F159G/H60P/L87M/M158V/N90S/V81Y); assay: ELISA-like plate assay, immobilized PYR1^DIAZI-M, biotinylated ΔN-HAB1^T+; assay type: binding; conditions: tested at 20 μM, ELISA-format
T1 construct: made in house
T1 sequence (O49686 with tags, fused parts or gaps E8G/H60P/V81Y/L87M/N90S/F108Y/M158V/F159G/A160V): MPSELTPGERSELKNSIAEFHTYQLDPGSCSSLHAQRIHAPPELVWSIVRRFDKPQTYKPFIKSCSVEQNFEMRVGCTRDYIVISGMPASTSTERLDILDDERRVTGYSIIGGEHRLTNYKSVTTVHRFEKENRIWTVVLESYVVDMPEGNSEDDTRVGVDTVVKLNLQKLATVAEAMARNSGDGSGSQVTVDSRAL

[2] = target: T2, PYR1^PIRI / HAB1 (Arabidopsis thaliana, UniProt O49686, A160T/E130G/F159T/K59R/N119S/S122Q/S92M/V174A); assay: Ligand/receptor-mediated PP2C (HAB1 phosphatase) inhibition, PYR1^PIRI; assay type: biochemical; conditions: HAB1 inhibition and Y2H assays
T2 construct: made in house
T2 sequence (O49686 with tags, fused parts or gaps K59R/S92M/N119S/S122Q/E130G/F159T/A160T/V174A): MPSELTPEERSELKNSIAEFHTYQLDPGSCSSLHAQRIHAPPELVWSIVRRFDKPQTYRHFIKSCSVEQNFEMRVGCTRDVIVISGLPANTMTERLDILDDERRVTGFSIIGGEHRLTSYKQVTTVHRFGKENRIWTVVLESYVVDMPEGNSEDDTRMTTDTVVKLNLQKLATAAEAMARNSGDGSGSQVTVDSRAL

[3] = target: T3, PYR1^DIAZI (Arabidopsis thaliana, UniProt O49686, A160V/E8G/F108Y/F159G/L87M/M158V/V81Y); assay: Yeast transcriptional activation circuit Z4-PYR1/VP64-ΔN-HAB1, GFP reporter, PYR1^DIAZI; conditions: panel of six chemically similar organophosphates
T3 sequence (Q9CAJ0 179-511): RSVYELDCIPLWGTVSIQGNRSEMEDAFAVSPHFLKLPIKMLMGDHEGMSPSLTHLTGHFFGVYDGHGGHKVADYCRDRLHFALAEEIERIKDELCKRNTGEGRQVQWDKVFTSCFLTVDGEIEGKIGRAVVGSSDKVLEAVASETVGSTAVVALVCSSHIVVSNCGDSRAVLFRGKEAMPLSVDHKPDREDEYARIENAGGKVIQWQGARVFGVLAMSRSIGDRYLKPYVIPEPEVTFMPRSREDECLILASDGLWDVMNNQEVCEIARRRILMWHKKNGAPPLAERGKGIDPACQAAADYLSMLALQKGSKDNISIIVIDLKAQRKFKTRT
T3 sequence (O49686 other isoform, or with tags, fused parts or gaps E8G/V81Y/L87M/F108Y/M158V/F159G/A160V): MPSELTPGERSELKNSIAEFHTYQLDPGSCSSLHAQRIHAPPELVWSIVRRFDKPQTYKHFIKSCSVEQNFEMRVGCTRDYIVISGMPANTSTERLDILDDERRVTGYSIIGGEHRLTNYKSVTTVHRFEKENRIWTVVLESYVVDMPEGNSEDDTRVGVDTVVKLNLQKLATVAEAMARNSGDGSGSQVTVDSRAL

[4] = target: T3, PYR1^DIAZI; assay: Split NanoLuc luciferase complementation in yeast, NLuc^N-PYR1^DIAZI/NLuc^C-HAB1; assay type: cell-based; parameters: >PYR1-DIAZI; expressed in transfected cells; host or cells: Saccharomyces cerevisiae BY4742
[5] = target: T4, PYR1^DIAZI / HAB1 (Arabidopsis thaliana, UniProt O49686, A160V/E8G/F108Y/F159G/L87M/M158V/V81Y); assay: Ligand/receptor-mediated PP2C (HAB1 phosphatase) inhibition, PYR1^DIAZI; assay type: biochemical
T4 construct: made in house
T4 sequence (O49686 with tags, fused parts or gaps E8G/V81Y/L87M/F108Y/M158V/F159G/A160V): T1 sequence (O49686 with tags, fused parts or gaps E8G/H60P/V81Y/L87M/N90S/F108Y/M158V/F159G/A160V) with P60H, S90N

SMILES: CCOP(=S)(OCC)Oc1cc(C)nc(C(C)C)n1 [Diazinon, diazinon]
- discrimination of on-target ligand from other organophosphates by PYR1^DIAZI [1]: good discrimination
- ligand concentrations required for activation of PYR1^PIRI above background [2]: high-nanomolar to low-micromolar
- PYR1^DIAZI EC50 to on-target ligand relative to other organophosphates [3]: greater than tenfold lower than all other molecules profiled
- EC50 [4]: 24 nM
- EC50 [5]: 36 nM
